Test results: ChEMBL document CHEMBL1201862, “PubChem BioAssay data set” (2004)
The source made the active and inactive calls.

Columns and labels:
[1] = target: G-protein coupled receptor 55 (Homo sapiens, UniProt Q9Y2T6); test: inhibition of LPI-stimulated GPR55 beta-arrestin translocation – imaging, U2OS, beta-arrestin-GFP, LPI agonist, primary screen (AID 2013); type: functional;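 further: antagonist potency measured as reduced agonist-driven arrestin aggregation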
[2] = HPDE-C7 pancreatic duct cell viability loss – fluorescence, HTS (AID 430); type: functional, cell-based; settings: Homo sapiens
H9c2 = test: cells; type: functional, cell-based; settings: Rattus norvegicus, H9c2, Myocardium;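 further: confirmatory concentration-response retest of ultra-high-throughput screening hits for modulation of myocardial damage; cell death induced by hydrogen peroxide oxidative stress; compound pretreatment for 60 min then peroxide exposure for 2 h; potency is for protecting the cells against peroxide damage rather than for killing them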
Protein skinhead-1 = target: T1, Protein skinhead-1 (Caenorhabditis elegans, UniProt P34707); type: functional
T1 sequence (P34707 whole entry): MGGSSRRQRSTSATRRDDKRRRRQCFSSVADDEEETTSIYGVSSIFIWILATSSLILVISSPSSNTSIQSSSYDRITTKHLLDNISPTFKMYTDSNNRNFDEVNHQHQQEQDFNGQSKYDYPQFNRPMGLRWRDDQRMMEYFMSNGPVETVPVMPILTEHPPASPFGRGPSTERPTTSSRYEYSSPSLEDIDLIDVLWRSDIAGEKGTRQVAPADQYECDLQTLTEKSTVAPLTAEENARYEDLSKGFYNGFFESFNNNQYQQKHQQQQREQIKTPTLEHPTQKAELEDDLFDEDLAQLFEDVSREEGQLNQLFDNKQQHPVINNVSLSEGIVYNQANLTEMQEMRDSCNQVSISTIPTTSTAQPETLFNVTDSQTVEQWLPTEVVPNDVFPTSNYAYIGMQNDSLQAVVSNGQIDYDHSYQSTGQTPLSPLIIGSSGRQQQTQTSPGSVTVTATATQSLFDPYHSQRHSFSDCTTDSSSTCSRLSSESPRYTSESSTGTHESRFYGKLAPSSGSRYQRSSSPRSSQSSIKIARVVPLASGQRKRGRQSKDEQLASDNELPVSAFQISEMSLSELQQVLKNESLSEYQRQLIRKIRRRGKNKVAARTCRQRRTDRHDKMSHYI

[3] = viability loss of HPDE-C7K cells – cell-based, fluorescence, HTS, primary screen (AID 431); type: functional; settings: Homo sapiens
[4] = target: T2, Corticotropin-releasing factor receptor 2/Corticotropin-releasing factor-binding protein (Homo sapiens, UniProt P24387+Q13324); test: activators of CRF receptor 2 with binding protein – uHTS hits, confirmation (AID 602473); type: functional; settings: read-out: EC50_Mean
T2 sequence (Q13324 whole entry): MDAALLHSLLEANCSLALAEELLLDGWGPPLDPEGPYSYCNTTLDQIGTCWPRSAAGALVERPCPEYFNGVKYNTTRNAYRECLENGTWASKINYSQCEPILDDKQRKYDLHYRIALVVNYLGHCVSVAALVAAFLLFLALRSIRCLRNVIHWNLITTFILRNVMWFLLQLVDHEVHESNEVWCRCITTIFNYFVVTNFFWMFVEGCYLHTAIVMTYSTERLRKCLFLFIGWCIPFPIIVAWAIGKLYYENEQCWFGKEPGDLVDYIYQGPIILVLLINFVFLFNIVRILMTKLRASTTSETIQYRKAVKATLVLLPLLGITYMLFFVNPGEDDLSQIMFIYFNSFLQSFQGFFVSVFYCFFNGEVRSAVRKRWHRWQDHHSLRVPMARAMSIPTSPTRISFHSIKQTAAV
T2 sequence (P24387 whole entry): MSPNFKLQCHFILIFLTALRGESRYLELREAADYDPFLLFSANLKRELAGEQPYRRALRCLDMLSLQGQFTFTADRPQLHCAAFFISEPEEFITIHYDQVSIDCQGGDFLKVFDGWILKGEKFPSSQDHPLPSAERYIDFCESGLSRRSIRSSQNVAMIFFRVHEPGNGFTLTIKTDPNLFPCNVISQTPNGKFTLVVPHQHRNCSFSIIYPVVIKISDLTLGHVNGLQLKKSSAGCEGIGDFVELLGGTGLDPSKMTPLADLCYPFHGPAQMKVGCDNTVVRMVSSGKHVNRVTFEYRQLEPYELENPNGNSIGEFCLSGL

Prothrombin = Prothrombin (Homo sapiens, UniProt P00734); test: Thrombin 1536 HTS Dose Response Confirmation. [Related pubchem assays: 1046 (Thrombin 1536 HTS; hits were confirmed in this assay)]; type: functional
[5] = Trypanosoma cruzi growth suppression in host cells – NIH3T3 host cells, beta-gal luminescence, confirmation (AID 2044); type: functional, cell-based;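 further: intracellular parasites grown in NIH/3T3 mouse fibroblasts as host cells; luminescent beta-galactosidase reporter signal from transgenic T. cruzi replicating inside host cells; inhibitors lower the luminescence signal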
HEK293 [6] = test: inhibition of NOD1-driven NF-kB reporter – cell-based, luminescence, uHTS, primary screen (AID 1578); type: functional; settings: Homo sapiens
HEK293 [7] = test: cells; type: functional, cell-based; settings: Homo sapiens
[8] = HEK-293T viability loss after treatment – luminescence, T-cell screen hits, cytotoxicity control for TCR NF-kB inhibitor project, dose response (AID 489026); type: functional, cell-based;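 further: cells exposed to compound about 14 hours before the viability readout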
[9] = NIH3T3 cell viability loss – ATP luminescence, mouse fibroblasts, counter-screen, dose response (AID 2010); type: functional, cell-based;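 further: cells exposed to compound for about 90 hours before reading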
[10] = target: T3, Short transient receptor potential channel 4 (Mus musculus, UniProt Q9QUQ5); test: calcium entry via TRPC4 opening agents – cell-based, HEK293 TRPC4/mu-opioid, Fluo-4 calcium, dose response (AID 434937); type: functional
T3 sequence (Q9QUQ5 whole entry): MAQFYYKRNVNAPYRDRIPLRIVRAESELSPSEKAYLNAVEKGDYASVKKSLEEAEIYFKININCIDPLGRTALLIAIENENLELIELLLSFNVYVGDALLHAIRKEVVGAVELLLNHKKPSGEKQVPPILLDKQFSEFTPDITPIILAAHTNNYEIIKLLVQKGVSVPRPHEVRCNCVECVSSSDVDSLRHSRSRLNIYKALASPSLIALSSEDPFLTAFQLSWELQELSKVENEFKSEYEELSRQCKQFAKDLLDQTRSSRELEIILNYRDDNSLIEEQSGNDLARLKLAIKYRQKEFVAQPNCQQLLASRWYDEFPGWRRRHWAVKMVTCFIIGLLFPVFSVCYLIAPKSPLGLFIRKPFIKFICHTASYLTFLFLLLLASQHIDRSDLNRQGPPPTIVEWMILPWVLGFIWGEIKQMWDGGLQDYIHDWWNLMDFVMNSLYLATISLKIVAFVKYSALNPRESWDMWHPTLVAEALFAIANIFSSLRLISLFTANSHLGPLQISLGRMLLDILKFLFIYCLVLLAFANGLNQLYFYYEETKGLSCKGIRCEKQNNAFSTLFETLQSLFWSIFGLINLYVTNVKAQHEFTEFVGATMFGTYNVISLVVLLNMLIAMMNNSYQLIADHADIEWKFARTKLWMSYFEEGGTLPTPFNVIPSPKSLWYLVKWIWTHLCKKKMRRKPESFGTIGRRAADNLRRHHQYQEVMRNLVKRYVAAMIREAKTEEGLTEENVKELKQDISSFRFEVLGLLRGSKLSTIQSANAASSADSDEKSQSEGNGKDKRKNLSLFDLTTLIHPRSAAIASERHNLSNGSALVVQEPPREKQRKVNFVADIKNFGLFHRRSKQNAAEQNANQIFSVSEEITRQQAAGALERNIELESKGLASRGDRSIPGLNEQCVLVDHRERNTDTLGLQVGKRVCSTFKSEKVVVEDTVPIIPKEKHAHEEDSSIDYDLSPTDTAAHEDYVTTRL

HEK293 [11] = test: cells; type: functional, cell-based; settings: Homo sapiens; remark: listed apart in the source
[12] = target: T4, E3 ubiquitin-protein ligase XIAP (Homo sapiens, UniProt P98170); test: small molecules displacing peptide from XIAP – biochemical, IAP family, fluorescence polarization (AID 1018); type: functional
[13] = target: T4, E3 ubiquitin-protein ligase XIAP; test: Counter Screen using XIAP-Bir3 for Chemical Antagonists of Bir1/2 domains of IAP-family anti-apoptotic proteins. [Related pubchem assays (depositor defined):AID1018, AID1449, AID1514, AID1638, AID1749, AID1750, AID488957, AID488963]
[14] = target: Eukaryotic translation initiation factor 4E (Mus musculus, UniProt P63073); test: blockers of eIF4G binding by eIF4E – biochemical, TR-FRET, dose response (AID 855); type: functional;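 further: potency for disrupting eIF4E binding to eIF4GI seen as loss of FRET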
[15] = target: T5, Mannose-6-phosphate isomerase (Homo sapiens, UniProt P34949); test: MPI enzyme activity inhibition – biochemical, fluorescence intensity, coupled assay, primary screen (AID 1209)
T5 sequence (P34949 whole entry): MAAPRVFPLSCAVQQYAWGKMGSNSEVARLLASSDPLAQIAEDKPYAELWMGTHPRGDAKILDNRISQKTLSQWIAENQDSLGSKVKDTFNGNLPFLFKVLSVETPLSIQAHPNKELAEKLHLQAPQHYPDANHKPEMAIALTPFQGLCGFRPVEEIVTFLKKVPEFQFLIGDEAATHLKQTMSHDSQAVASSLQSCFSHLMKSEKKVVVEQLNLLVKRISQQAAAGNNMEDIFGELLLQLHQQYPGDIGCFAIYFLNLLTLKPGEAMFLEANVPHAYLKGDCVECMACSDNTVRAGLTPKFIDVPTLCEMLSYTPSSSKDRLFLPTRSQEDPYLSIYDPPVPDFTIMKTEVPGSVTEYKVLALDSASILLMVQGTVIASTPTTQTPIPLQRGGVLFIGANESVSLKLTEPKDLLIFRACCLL

[16] = target: T5, Mannose-6-phosphate isomerase; test: MPI inhibition at elevated mannose 6-phosphate – biochemical, fluorescence intensity, high mannose 6-phosphate, primary screen (AID 1220)
[17] = Luminescence Cell-Based Dose Retest to Confirm Inhibitors of Cancer Stem Cells. [Related pubchem assays (depositor defined):AID2717, AID2721]; type: functional; settings: Homo sapiens
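Wherever AC50 is given: cells exposed to compound for roughly 70 hours or longer before luminescence read.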

T4 sequence (P98170 whole entry): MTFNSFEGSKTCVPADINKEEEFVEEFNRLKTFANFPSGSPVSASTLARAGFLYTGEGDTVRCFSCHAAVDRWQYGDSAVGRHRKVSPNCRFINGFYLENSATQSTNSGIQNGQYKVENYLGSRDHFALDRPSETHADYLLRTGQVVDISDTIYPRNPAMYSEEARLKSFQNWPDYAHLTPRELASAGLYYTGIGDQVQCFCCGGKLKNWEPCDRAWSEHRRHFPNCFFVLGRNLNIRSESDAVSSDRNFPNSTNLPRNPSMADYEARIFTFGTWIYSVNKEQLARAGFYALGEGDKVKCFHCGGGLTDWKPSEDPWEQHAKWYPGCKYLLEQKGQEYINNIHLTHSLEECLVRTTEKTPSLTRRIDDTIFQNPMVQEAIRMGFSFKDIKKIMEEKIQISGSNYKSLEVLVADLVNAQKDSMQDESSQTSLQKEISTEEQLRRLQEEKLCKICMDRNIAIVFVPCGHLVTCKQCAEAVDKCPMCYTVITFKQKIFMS
Chain of Eukaryotic translation initiation factor 4E (P63073 whole entry): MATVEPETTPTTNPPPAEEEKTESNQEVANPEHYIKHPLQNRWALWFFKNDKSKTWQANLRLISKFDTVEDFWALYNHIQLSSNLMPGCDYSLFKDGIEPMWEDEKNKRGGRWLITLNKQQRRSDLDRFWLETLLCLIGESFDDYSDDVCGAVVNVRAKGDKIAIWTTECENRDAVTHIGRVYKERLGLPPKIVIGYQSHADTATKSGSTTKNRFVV
Chain of G-protein coupled receptor 55 (Q9Y2T6 whole entry): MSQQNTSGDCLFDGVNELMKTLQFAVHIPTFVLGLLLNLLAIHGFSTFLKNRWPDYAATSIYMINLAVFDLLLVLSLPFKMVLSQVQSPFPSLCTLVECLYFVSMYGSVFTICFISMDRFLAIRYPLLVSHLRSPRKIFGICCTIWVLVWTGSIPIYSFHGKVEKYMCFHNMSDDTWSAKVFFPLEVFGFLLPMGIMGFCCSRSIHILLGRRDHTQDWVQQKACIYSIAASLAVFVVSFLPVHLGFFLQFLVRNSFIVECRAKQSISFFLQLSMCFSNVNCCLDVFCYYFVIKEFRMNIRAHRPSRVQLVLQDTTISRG

With `Cc1[nH]c2c(Br)cccc2c1[C@H]1[C@@H](CC#N)C1(C)C` the IC50 [1] was 1.49 µM (active).
For `CCC(=O)N1CCN(c2ccc(NC(=O)c3cc4ccccc4o3)cc2Cl)CC1`, the EC50 [2] was 11.5 µM (active), the IC50 (H9c2) was 15.9 µM (active) and the IC50 (Protein skinhead-1) was > 100 µM (inactive). The EC50 [3] was 10.9 µM (active).
For `Cc1ccc(-c2noc(CN3CCC(C(N)=O)CC3)n2)cc1`, the EC50 [4] was > 53 µM (inactive) and the IC50 (Prothrombin) was > 50 µM (not active).
In the case of `CCCC[n+]1c(C=C2C=Cc3ccccc3N2CC)sc2ccccc21`, the EC50 [5] was < 0.1 µM (active), the EC50 (cells) was 0.058 µM (active) and the EC50 (HEK293 [6]) was 2.17 µM (active). The IC50 (HEK293 [7]) was 1.96 µM (active), the IC50 [8] was > 80 µM (inactive) and the EC50 [9] was > 60 µM (not active). For the same compound, the EC50 [10] was 7.5 µM (active) and the IC50 (HEK293 [11]) was 11.1 µM (active).
In the case of `COc1ccc(S(=O)(=O)CCc2nnc(NC(=O)c3cccs3)s2)cc1`, the IC50 (Prothrombin) was > 50 µM (not active).
In the case of `Fc1cccc(COc2ccccc2CNc2ccccc2)c1`, the IC50 [12] was > 100 µM (not active) and the IC50 [13] was > 100 µM (inactive).
For `CCOc1ccccc1NC(=O)C1CCN(S(=O)(=O)c2cccc3cccnc23)CC1`, the IC50 [14] was > 64 µM (inactive).
With `CC[n+]1c(C)sc2c(C)cc(C)cc21` the IC50 [15] was 10.8 µM (active), the IC50 [16] was > 50 µM (not active) and the IC50 [12] was > 100 µM (not active). For the same compound, the IC50 [13] was > 100 µM (inactive).
For `O=C1CC(=C(c2ccccc2)c2ccccc2)C(=O)N1CCCCN1CCN(c2cccc(Cl)c2)CC1`, the AC50 [17] was 0.624 µM (active), the IC50 [12] was > 100 µM (not active) and the IC50 [13] was > 100 µM (inactive).
